This passage reports Activity results from ChEMBL document CHEMBL1148849, “Synthesis and structure evaluation of a novel cantharimide and its cytotoxicity on SK-Hep-1 hepatoma cells” (2007).

The source made the active and inactive calls. The rule behind the calls is not given here.

For assay [1], the system named is SK-HEP1. Description: Cytotoxicity against human SK-HEP-1 cells assessed as 50 percent MTS reduction after 48 hrs. It is filed as functional. For orientation: Tetrazolium dyes change colour on reduction, which living cells bring about.
For assay [2], the system named is MCF7. Put plainly: Apoptotic effect on MCF7 cells assessed as induction of shrinkage at 25 ug/mL after 48 hrs. It is filed as functional, cell-based. The conditions noted are these: Homo sapiens.
Assay [3] concerns SK-HEP1. Put plainly: Cytotoxicity against human SK-HEP-1 cells assessed as inducing cell shrinkage after 48 hrs by MTS assay. It is filed as functional, cell-based.
Assay [4] has as its system SK-HEP1. Put plainly: Cytotoxicity against human SK-HEP-1 cells assessed as inducing loss of colony formation by MTS assay. It is filed as functional, cell-based.
The test system of assay [5] is LNCaP. Put plainly: Apoptotic effect on LNCap cells assessed as induction of shrinkage at 25 ug/mL after 48 hrs. It is filed as functional, cell-based. The settings on record: Homo sapiens.
The subject of assay [6] is SK-HEP1. Description: Effect on apoptosis in human SK-HEP-1 cells at 25 ug/mL after 48 hrs by TUNEL method. It is filed as functional, cell-based.
Assay [7] relates to SK-HEP1. Put plainly: Effect on apoptosis in human SK-HEP-1 cells assessed as increase in caspase 3 activation at 25 ug/mL after 48 hrs. It is filed as functional, cell-based.

On to `COc1ccc2nc(N3C(=O)[C@@]4(C)[C@H]5CC[C@H](O5)[C@@]4(C)C3=O)sc2c1`, for which the Activity in assay [1] amounted to 6.25 µg/mL. Further, the result in assay [2], in assay [3], in assay [4], in assay [5], in assay [6] and in assay [7] was Active.
For `Cc1ccc2nc(N3C(=O)[C@@]4(C)[C@H]5CC[C@H](O5)[C@@]4(C)C3=O)sc2c1`, in assay [1], the Activity was 12.5 µg/mL. Besides, the result in assay [3], in assay [4], in assay [6] and in assay [7] was Active.
